Reference: article PMC5218480 (PLoS ONE, 2017)

System: MV-4-11 cells
Assay: Gene expression microarray analysis (Affymetrix PrimeView) and GSEA
Format: cell-based, human
Set-up: RFU PODN (11730768_x_at) / Fold change /veh PODN (11730768_x_at) / RFU LINC00158 (11744669_a_at) / Fold change /veh LINC00158 (11744669_a_at) / RFU DUSP10 (11751237_a_at) / Fold change /veh DUSP10 (11751237_a_at) / RFU ID3 (11757404_x_at) / Fold change /veh ID3 (11757404_x_at) / RFU PLEKHG5 (11737974_s_at) / Fold change /veh PLEKHG5 (11737974_s_at) / RFU LRRC4B (11730491_at) / Fold change /veh LRRC4B (11730491_at) / RFU GIMAP4 (11747438_a_at) / Fold change /veh GIMAP4 (11747438_a_at) / RFU KRT8 (11758183_x_at) / Fold change /veh KRT8 (11758183_x_at) / RFU CNN1 (11734310_a_at) / Fold change /veh CNN1 (11734310_a_at) / RFU VPS37D (11726825_at) / Fold change /veh VPS37D (11726825_at) / RFU C10orf10 (11716522_x_at) / Fold change /veh C10orf10 (11716522_x_at) / RFU KIR2DL2 /// KIR2DL4 /// KIR2DL5A /// KIR2DL5B /// KIR2DS1 /// KIR2DS2 /// KIR2DS3 /// KIR2DS4 /// KIR3DL3 /// KIR3DL3 /// KIR3DS1 (11738374_at) / Fold change /veh KIR2DL2 /// KIR2DL4 /// KIR2DL5A /// KIR2DL5B /// KIR2DS1 /// KIR2DS2 /// KIR2DS3 /// KIR2DS4 /// KIR3DL3 /// KIR3DL3 /// KIR3DS1 (11738374_at) / RFU C1QL1 (11718748_at) / Fold change /veh C1QL1 (11718748_at) / RFU TMPRSS4 (11747572_a_at) / Fold change /veh TMPRSS4 (11747572_a_at) / RFU HAMP (11756126_x_at) / Fold change /veh HAMP (11756126_x_at) / RFU RNFT2 (11725882_a_at) / Fold change /veh RNFT2 (11725882_a_at) / RFU NR4A2 (11747474_a_at) / Fold change /veh NR4A2 (11747474_a_at) / RFU ABCC12 (11746883_a_at) / Fold change /veh ABCC12 (11746883_a_at) / RFU TMEM136 (11760407_x_at) / Fold change /veh TMEM136 (11760407_x_at) / RFU CLDN22 /// WWC2 (11732394_at) / Fold change /veh CLDN22 /// WWC2 (11732394_at) / RFU HLA-DPB1 (11760878_x_at) / Fold change /veh HLA-DPB1 (11760878_x_at) / RFU SPINT1 (11716480_a_at) / Fold change /veh SPINT1 (11716480_a_at) / RFU GAP43 (11754022_s_at) / Fold change /veh GAP43 (11754022_s_at) / RFU A4GNT (11735810_at) / Fold change /veh A4GNT (11735810_at) / RFU PRB3 (11715151_x_at) / Fold change /veh PRB3 (11715151_x_at) / RFU TUBB4B (11761932_at) / Fold change /veh TUBB4B (11761932_at) / RFU CAPN14 (11732068_a_at) / Fold change /veh CAPN14 (11732068_a_at) / RFU TMCC2 (11721928_a_at) / Fold change /veh TMCC2 (11721928_a_at) / RFU IRGQ (11745062_a_at) / Fold change /veh IRGQ (11745062_a_at) / RFU FAM174B (11720279_a_at) / Fold change /veh FAM174B (11720279_a_at) / RFU TMPRSS4 (11748680_a_at) / Fold change /veh TMPRSS4 (11748680_a_at) / RFU FAM212B (11763350_a_at) / Fold change /veh FAM212B (11763350_a_at) / RFU PLEKHG5 (11743358_a_at) / Fold change /veh PLEKHG5 (11743358_a_at) / RFU ZSCAN30 (11745921_a_at) / Fold change /veh ZSCAN30 (11745921_a_at) / RFU CMKLR1 (11741424_a_at) / Fold change /veh CMKLR1 (11741424_a_at) / RFU LOC101060620 /// MAPK8IP1 (11723275_at) / Fold change /veh LOC101060620 /// MAPK8IP1 (11723275_at) / RFU SPTSSB (11747773_x_at) / Fold change /veh SPTSSB (11747773_x_at) / RFU PRSS12 (11739890_at) / Fold change /veh PRSS12 (11739890_at) / RFU BIN1 (11741810_x_at) / Fold change /veh BIN1 (11741810_x_at) / RFU WNT11 (11732464_a_at) / Fold change /veh WNT11 (11732464_a_at) / RFU C10orf10 (11716521_a_at) / Fold change /veh C10orf10 (11716521_a_at) / RFU C5orf56 (11738089_at) / Fold change /veh C5orf56 (11738089_at) / RFU CYB561 (11721691_x_at) / Fold change /veh CYB561 (11721691_x_at) / RFU ANKRD19P (11752326_a_at) / Fold change /veh ANKRD19P (11752326_a_at) / RFU OR2T12 /// OR2T33 /// OR2T8 (11738714_s_at) / Fold change /veh OR2T12 /// OR2T33 /// OR2T8 (11738714_s_at) / RFU VCAN (11748164_a_at) / Fold change /veh VCAN (11748164_a_at) / RFU JSRP1 (11732532_at) / Fold change /veh JSRP1 (11732532_at) / RFU KRTAP10-11 (11738290_x_at) / Fold change /veh KRTAP10-11 (11738290_x_at) / RFU MYO3A (11730013_a_at) / Fold change /veh MYO3A (11730013_a_at) / RFU EBF3 (11725865_a_at) / Fold change /veh EBF3 (11725865_a_at) / RFU CAMK2N1 (11719241_x_at) / Fold change /veh CAMK2N1 (11719241_x_at) / RFU C5orf56 (11738088_a_at) / Fold change /veh C5orf56 (11738088_a_at) / RFU OLFML3 (11715873_a_at) / Fold change /veh OLFML3 (11715873_a_at) / RFU LOC100653217 /// NTM (11731650_a_at) / Fold change /veh LOC100653217 /// NTM (11731650_a_at) / RFU MAPK11 (11762145_a_at) / Fold change /veh MAPK11 (11762145_a_at) / RFU FIZ1 (11724087_x_at) / Fold change /veh FIZ1 (11724087_x_at) / RFU OASL (11726364_x_at) / Fold change /veh OASL (11726364_x_at) / RFU SOX15 (11748057_x_at) / Fold change /veh SOX15 (11748057_x_at) / RFU CD79A (11719716_a_at) / Fold change /veh CD79A (11719716_a_at) / RFU HIST1H1D (11736915_at) / Fold change /veh HIST1H1D (11736915_at) / RFU CASKIN2 (11723855_a_at) / Fold change /veh CASKIN2 (11723855_a_at) / RFU LOC730098 (11760151_x_at) / Fold change /veh LOC730098 (11760151_x_at) / RFU OR4N2 (11742367_at) / Fold change /veh OR4N2 (11742367_at) / RFU PRRT2 (11749266_a_at) / Fold change /veh PRRT2 (11749266_a_at) / RFU SNX32 (11753110_a_at) / Fold change /veh SNX32 (11753110_a_at) / RFU CDHR5 (11726645_a_at) / Fold change /veh CDHR5 (11726645_a_at) / RFU RCAN1 (11760418_a_at) / Fold change /veh RCAN1 (11760418_a_at) / RFU FAM167A (11723789_a_at) / Fold change /veh FAM167A (11723789_a_at) / RFU FAM26E (11764081_at) / Fold change /veh FAM26E (11764081_at) / RFU ISYNA1 (11749810_s_at) / Fold change /veh ISYNA1 (11749810_s_at) / RFU ACY1 (11761880_at) / Fold change /veh ACY1 (11761880_at) / RFU 11764098_at / Fold change /veh 11764098_at / RFU SAMD14 (11745864_x_at) / Fold change /veh SAMD14 (11745864_x_at) / RFU NPB (11741838_a_at) / Fold change /veh NPB (11741838_a_at) / RFU TMPRSS6 (11731388_a_at) / Fold change /veh TMPRSS6 (11731388_a_at) / RFU KRTAP10-2 (11738614_at) / Fold change /veh KRTAP10-2 (11738614_at) / RFU ARHGAP8 /// PRR5-ARHGAP8 (11727945_x_at) / Fold change /veh ARHGAP8 /// PRR5-ARHGAP8 (11727945_x_at) / RFU KRTAP5-7 /// NADSYN1 (11734609_at) / Fold change /veh KRTAP5-7 /// NADSYN1 (11734609_at) / RFU RASL12 (11751679_a_at) / Fold change /veh RASL12 (11751679_a_at) / RFU CDKN2B (11736163_a_at) / Fold change /veh CDKN2B (11736163_a_at) / RFU PRF1 (11729649_at) / Fold change /veh PRF1 (11729649_at) / RFU, ZNF638 /// ZNF638-IT1 / Fold change vs veh, ZNF638 /// ZNF638-IT1 / RFU, PANK3 / Fold change vs veh, PANK3 / RFU, SH3YL1 / Fold change vs veh, SH3YL1 / RFU, ZEB2 / Fold change vs veh, ZEB2 / RFU, NRIP1 / Fold change vs veh, NRIP1 / RFU, PTTG1IP / Fold change vs veh, PTTG1IP / RFU, CAPN2 / Fold change vs veh, CAPN2 / RFU, MED14 / Fold change vs veh, MED14 / RFU, SNORA58 / Fold change vs veh, SNORA58 / RFU, C1orf63 / Fold change vs veh, C1orf63 / RFU, LRRFIP1 / Fold change vs veh, LRRFIP1 / RFU, NDUFAF7 / Fold change vs veh, NDUFAF7 / RFU, SLC12A2 / Fold change vs veh, SLC12A2 / RFU, IBTK / Fold change vs veh, IBTK / RFU, ESF1 / Fold change vs veh, ESF1 / Fold change vs veh, TMEM50B / RFU, TAOK1 / Fold change vs veh, TAOK1 / RFU, ACBD3 / Fold change vs veh, ACBD3 / RFU, TMA16 / Fold change vs veh, TMA16 / RFU, RWDD3 / Fold change vs veh, RWDD3 / RFU, BCAT1 / Fold change vs veh, BCAT1 / RFU, EDEM3 / Fold change vs veh, EDEM3 / RFU, TMEM33 / Fold change vs veh, TMEM33 / RFU, WDR75 / Fold change vs veh, WDR75 / RFU, AHCTF1 / Fold change vs veh, AHCTF1 / RFU, TFRC / Fold change vs veh, TFRC / RFU, ZDHHC17 / Fold change vs veh, ZDHHC17 / RFU, NOM1 / Fold change vs veh, NOM1 / RFU, ARL8B / Fold change vs veh, ARL8B / RFU, ZBTB11 / Fold change vs veh, ZBTB11 / RFU, TAMM41 / Fold change vs veh, TAMM41 / RFU, KIAA1704 /// LOC100996395 / Fold change vs veh, KIAA1704 /// LOC100996395 / RFU, ING1 / Fold change vs veh, ING1 / RFU, TRMT61B / Fold change vs veh, TRMT61B / RFU, FUBP3 / Fold change vs veh, FUBP3 / RFU, TP53 / Fold change vs veh, TP53 / RFU, TNKS2 / Fold change vs veh, TNKS2 / RFU, ZFP14 / Fold change vs veh, ZFP14 / RFU, ACTR2 / Fold change vs veh, ACTR2 / RFU, PPP3R1 / Fold change vs veh, PPP3R1 / RFU, PIK3R1 / Fold change vs veh, PIK3R1 / RFU, HNRNPA1 / Fold change vs veh, HNRNPA1 / RFU, RNF170 / Fold change vs veh, RNF170 / RFU, ZNF28 / Fold change vs veh, ZNF28 / RFU, RNGTT / Fold change vs veh, RNGTT / RFU, OGT / Fold change vs veh, OGT / RFU, BRD1 / Fold change vs veh, BRD1 / RFU, MARS / Fold change vs veh, MARS / RFU, ZNF655 / Fold change vs veh, ZNF655 / RFU, FAHD1 / Fold change vs veh, FAHD1 / RFU, BDP1 / Fold change vs veh, BDP1 / RFU, LRRCC1 / Fold change vs veh, LRRCC1 / RFU, ARID1A / Fold change vs veh, ARID1A / RFU, ZNF146 / Fold change vs veh, ZNF146 / RFU, ZNF330 / Fold change vs veh, ZNF330 / RFU, GPN3 / Fold change vs veh, GPN3 / RFU, C9orf123 / Fold change vs veh, C9orf123 / RFU, N4BP2L2 / Fold change vs veh, N4BP2L2 / RFU, ARFIP1 / Fold change vs veh, ARFIP1 / RFU, FAM179B / Fold change vs veh, FAM179B / RFU, BCL10 / Fold change vs veh, BCL10 / RFU, UHRF1BP1L / Fold change vs veh, UHRF1BP1L / RFU, BET1 / Fold change vs veh, BET1 / RFU, CNOT2 / Fold change vs veh, CNOT2 / RFU, ZNF268 / Fold change vs veh, ZNF268 / Fold change vs veh, ZNF507 / RFU, DGCR2 / Fold change vs veh, DGCR2 / RFU, WDSUB1 / Fold change vs veh, WDSUB1 / Fold change vs veh, HSP90B1 /// MIR3652 / RFU, ADSS / Fold change vs veh, ADSS / RFU, GK / Fold change vs veh, GK / RFU, ZNF148 / Fold change vs veh, ZNF148 / RFU, TAF9 / Fold change vs veh, TAF9 / RFU, SLC1A5 / Fold change vs veh, SLC1A5 / RFU, SLMO2 / Fold change vs veh, SLMO2 / RFU, ABCC4 / Fold change vs veh, ABCC4 / RFU, LOC101060439 /// RAP1B / Fold change vs veh, LOC101060439 /// RAP1B / RFU, RFX7 / Fold change vs veh, RFX7 / RFU, GTPBP10 / Fold change vs veh, GTPBP10 / RFU, CNEP1R1 / Fold change vs veh, CNEP1R1 / RFU, BIVM-ERCC5 /// ERCC5 / Fold change vs veh, BIVM-ERCC5 /// ERCC5 / RFU, ILF3 / Fold change vs veh, ILF3 / RFU 11762660_at / Fold change /veh 11762660_at / RFU VCAN (11757783_s_at) / Fold change /veh VCAN (11757783_s_at) / RFU DDX43 (11728927_at) / Fold change /veh DDX43 (11728927_at) / RFU KRT8 (11758188_x_at) / Fold change /veh KRT8 (11758188_x_at) / RFU NKD1 (11759106_at) / Fold change /veh NKD1 (11759106_at) / RFU SRD5A1 (11742802_a_at) / Fold change /veh SRD5A1 (11742802_a_at) / RFU TPSAB1 /// TPSB2 (11721975_s_at) / Fold change /veh TPSAB1 /// TPSB2 (11721975_s_at) / RFU GSTM3 (11746129_a_at) / Fold change /veh GSTM3 (11746129_a_at) / RFU IL23R (11737362_x_at) / Fold change /veh IL23R (11737362_x_at) / RFU TMEM51 (11727254_a_at) / Fold change /veh TMEM51 (11727254_a_at) / RFU PIWIL2 (11732686_x_at) / Fold change /veh PIWIL2 (11732686_x_at) / RFU ORM1 (11744905_x_at) / Fold change /veh ORM1 (11744905_x_at) / RFU CCDC152 (11743942_at) / Fold change /veh CCDC152 (11743942_at) / RFU ECM1 (11717891_a_at) / Fold change /veh ECM1 (11717891_a_at) / RFU IL23R (11748794_a_at) / Fold change /veh IL23R (11748794_a_at) / RFU TNFAIP8L3 (11732012_x_at) / Fold change /veh TNFAIP8L3 (11732012_x_at) / RFU MBOAT4 (11741988_at) / Fold change /veh MBOAT4 (11741988_at) / RFU 11764193_at / Fold change /veh 11764193_at / RFU TMEM53 (11763286_at) / Fold change /veh TMEM53 (11763286_at) / RFU MAGEB2 (11727129_at) / Fold change /veh MAGEB2 (11727129_at) / RFU TMEM200A (11744735_a_at) / Fold change /veh TMEM200A (11744735_a_at) / RFU CCDC152 (11751479_a_at) / Fold change /veh CCDC152 (11751479_a_at) / RFU FAM211A (11726209_a_at) / Fold change /veh FAM211A (11726209_a_at) / RFU RGS16 (11746705_a_at) / Fold change /veh RGS16 (11746705_a_at) / RFU VCAN (11755009_s_at) / Fold change /veh VCAN (11755009_s_at) / RFU RHOB (11743442_s_at) / Fold change /veh RHOB (11743442_s_at) / RFU RGS16 (11720943_a_at) / Fold change /veh RGS16 (11720943_a_at) / RFU RGS16 (11720944_at) / Fold change /veh RGS16 (11720944_at) / RFU, VPS4B / Fold change vs veh, VPS4B / RFU, CREB1 / Fold change vs veh, CREB1 / RFU, DNAJC13 / Fold change vs veh, DNAJC13 / RFU, GNAQ / Fold change vs veh, GNAQ / RFU, CDK5R1 / Fold change vs veh, CDK5R1 / RFU, ZRANB3 / Fold change vs veh, ZRANB3 / RFU, CUL4A / Fold change vs veh, CUL4A / RFU, CCNY / Fold change vs veh, CCNY / RFU, UFL1 / Fold change vs veh, UFL1 / RFU, COG3 / Fold change vs veh, COG3 / RFU, DIAPH2 / Fold change vs veh, DIAPH2 / RFU, SKA2 / Fold change vs veh, SKA2 / RFU, AFF3 / Fold change vs veh, AFF3 / RFU, LMF1 / Fold change vs veh, LMF1 / RFU, IPO11 / Fold change vs veh, IPO11 / RFU, DFFB / Fold change vs veh, DFFB / RFU, FOXP1 / Fold change vs veh, FOXP1 / RFU, CARD8 / Fold change vs veh, CARD8 / RFU, STRN3 / Fold change vs veh, STRN3 / RFU, ADK / Fold change vs veh, ADK / RFU, RASSF2 / Fold change vs veh, RASSF2 / RFU, WIPF1 / Fold change vs veh, WIPF1 / RFU, LARP1B / Fold change vs veh, LARP1B / RFU, RASA1 / Fold change vs veh, RASA1 / RFU, RB1 / Fold change vs veh, RB1 / RFU, PPFIA1 / Fold change vs veh, PPFIA1 / RFU, MAT2A / Fold change vs veh, MAT2A / RFU, CCT5 / Fold change vs veh, CCT5 / RFU, WDR92 / Fold change vs veh, WDR92 / RFU, CUX1 / Fold change vs veh, CUX1 / RFU, TTC7A / Fold change vs veh, TTC7A / RFU, TMEM135 / Fold change vs veh, TMEM135 / RFU, DEPTOR / Fold change vs veh, DEPTOR / RFU, CPM / Fold change vs veh, CPM / RFU, DNAJB6 / Fold change vs veh, DNAJB6 / RFU, CACNA2D3 / Fold change vs veh, CACNA2D3 / RFU, DTX4 / Fold change vs veh, DTX4 / RFU, TFCP2 / Fold change vs veh, TFCP2 / RFU, GMCL1 /// GMCL1P1 / Fold change vs veh, GMCL1 /// GMCL1P1 / RFU, AEBP2 / Fold change vs veh, AEBP2 / RFU, SNHG1 /// SNORD22 /// SNORD25 /// SNORD26 /// SNORD27 /// SNORD28 /// SNORD29 /// SNORD31 / Fold change vs veh, SNHG1 /// SNORD22 /// SNORD25 /// SNORD26 /// SNORD27 /// SNORD28 /// SNORD29 /// SNORD31 / Fold change (Aza/veh), C12orf56 (ProbeSet 11735607_a_at) / Fold change (ACY-1035/veh), C12orf56 (ProbeSet 11735607_a_at) / Fold change (Aza/veh), FGFR1OP (ProbeSet 11751329_s_at) / Fold change (ACY-1035/veh), FGFR1OP (ProbeSet 11751329_s_at) / Fold change (Aza/veh), VPS36 (ProbeSet 11739960_a_at) / Fold change (ACY-1035/veh), VPS36 (ProbeSet 11739960_a_at) / RFU SYPL1 (11715823_x_at) / Fold change /veh SYPL1 (11715823_x_at) / RFU IGFBP7 (11715501_s_at) / Fold change /veh IGFBP7 (11715501_s_at) / RFU REEP3 (11722064_at) / Fold change /veh REEP3 (11722064_at) / RFU IGLL1 (11728026_x_at) / Fold change /veh IGLL1 (11728026_x_at): dose or concentration left out as unconfirmed
Settings: MV-4-11 cells, 48 hours

Compound: Nc1ncn([C@@H]2O[C@H](CO)[C@@H](O)[C@H]2O)c(=O)n1 [azacitidine]
- Fold change /veh CCDC152 (11751479_a_at): 2.85
